Reference: ChEMBL document CHEMBL1152056, “Targeting radiosensitizers to DNA by minor groove binding: nitroarenes based on netropsin and distamycin” (1993)

How the values were obtained:
Nucleic Acid = experiment: Concentration required for 50% decrease in fluorescence of ethidium bromide bound to calf thymus DNA. at 600 nm; format: nucleic-acid assay; details: Bos taurus
[1] = Cellular uptake was calculated as the ratio of intracellular and extracellular concentration in V79 hamster cells.; format: functional, Cricetulus griseus
[2] = Enhancement ratio was calculated to determine the radiosensitization as the ratio of radiation dose required to kill similar cells in anoxia to those with the compound; at a concentration of 0.5 mM; format: functional, Cricetulus griseus
[3] = Concentration required to kill 50 % of the cells after ca. 7 days aerobic exposure.; format: functional, Cricetulus griseus
[4] = Enhancement ratio was calculated to determine the radiosensitization as the ratio of radiation dose required to kill similar cells in anoxia to those with the compound; at a concentration of 0.05 mM; format: functional, Cricetulus griseus
[5] = Concentration required to kill 50 % of the cells after ca. 7 days exposure.; format: functional, Cricetulus griseus
[6] = Enhancement ratio was calculated to determine the radiosensitization as the ratio of radiation dose required to kill similar cells in anoxia to those with the compound; at a concentration of 1.0 mM; format: functional, Cricetulus griseus
[7] = Concentration required to kill 50 % of the cells after ca. 7 days aerobic exposure; value ranges from 0.025-0.05; format: functional, Cricetulus griseus
[8] = Enhancement ratio was calculated to determine the radiosensitization as the ratio of radiation dose required to kill similar cells in anoxia to those with the compound; at a concentration of ~5 mM; format: functional, Cricetulus griseus

C50 (Nucleic Acid) [µM] | Structure (SMILES) | Ratio (Ci/Ce) [1] | Ratio [2] | C50 [3] [mM] | other results
16 | Cl.Cn1cc(NC(=O)c2cc(NC(=O)Cn3ccnc3[N+](=O)[O-])cn2C)cc1C(=O)NCCC(=N)N | 3.6 | 1.04 | >0.25 | 
4.8 | Cl.Cn1cc(NC(=O)c2cc(NC(=O)c3ccc([N+](=O)[O-])o3)cn2C)cc1C(=O)NCCC(=N)N | 9.4 | 1.16 |  | C50 [5]: <0.01 mM
26 | Cl.Cn1cc(NC(=O)c2ccc([N+](=O)[O-])o2)cc1C(=O)NCCC(=N)N |  |  |  | Ratio [4]: 1.3; C50 [7]: 0.025 mM
6.8 | Cl.Cn1cc(NC(=O)Cn2ccnc2[N+](=O)[O-])cc1C(=O)NCCC(=N)N |  | 1.04 | >0.25 | 

The remaining lines, values behind:

Structure (SMILES) | C50 (Nucleic Acid) [µM] | Ratio (Ci/Ce) [1] | Ratio [2] | C50 [3] [mM] | other results
Cn1cc(NC(=O)c2cc(NC(=O)c3cc(NC=O)cn3C)cn2C)cc1C(=O)NCCC(=N)N | 1.3 |  |  |  | 
NC(=O)N/N=C/c1ccc([N+](=O)[O-])o1 [NITROFURAZONE] | > 1000 |  |  | 0.13 | Ratio [4]: 1.6
COCC(O)Cn1ccnc1[N+](=O)[O-] (stereo not drawn) [MISONIDAZOLE] | 2700 | 0.7 |  | 1.3 | 
O=C(Cn1ccnc1[N+](=O)[O-])NCCO [ETANIDAZOLE] | 3000 | 0.4 |  |  | Ratio [6]: 1.55
Cn1cc(NC(=O)c2cc(NC(=O)CNC(=N)N)cn2C)cc1C(=O)NCCC(=N)N | 1.1 |  |  |  | 
Cc1ncc([N+](=O)[O-])n1CCO [METRONIDAZOLE] | 3200 |  |  | 6.5 | Ratio [8]: 1.6
